Laboratory results: patent US20240316069A1, “METHODS OF TREATING MULTIPLE SCLEROSIS” (ASCENTAGE PHARMA (SUZHOU) CO., LTD., priority 2020, published 2024)
Entries after “also recorded” stand apart in the source; their conditions may differ.

Tests used:
[1] = system: MOG35-55 induced experimental autoimmune encephalomyelitis (EAE) model in C57BL/6 mice; test: Clinical scores in MOG35-55 induced EAE model; type: in vivo
[2] = system: MOG35-55 induced experimental autoimmune encephalomyelitis (EAE) model in C57BL/6 mice; test: Histopathologic assessment of spinal cord, LFB staining (demyelination) in EAE model; type: in vivo; conditions: for LFB staining score: day 21, spinal cord, scoring 0 to 4
Experimental: (§1) The mice were anesthetized with isoflurane and immunized with 300 μg MOG 35-55 peptide emulsified (1:1) in […] Freund's adjuvant with 600 μg Mycobacterium tuberculosis. Each mouse received 0.05 ml emulsion (s.c.) at four sites (back shoulder and tail root). The mice were further intraperitoneally injected with 250 μL pertussis toxin (1 μg/mL) at 0 h and 48 h post immunization. The day when MOG 35-55 peptide was injected was set as day 1.
(§2) Mice in Group 1 were treated with vehicle for 20 days (po, qd, from day 1-20). Mice in Group 2, Group 3 and Group 4 were treated with 100 mg/kg Compound 4 for 20 days (po, qd, from day 1-20), 14 days (po, qd, from day 7-20) and 7 days (po, qd, from day 14-20) respectively. FTY720 was used as positive control which was orally administered to mice in Group 5 for 20 days (qd, from day 1-20). The protocols and procedures involving the care and use of animals were approved by the Institutional Animal Care and Use Committee (IACUC) at Bioduro (Shanghai, China). The information of each group is as follows.
(§3) At the end of the study (day 21), all the animals were sacrificed by CO2, and the spinal cords were collected and fixed in 10% formalin for pathological analysis (H&E and LFB staining). The histopathological score was evaluated microscopically in a blinded manner.
The structure and morphology of spinal cord was evaluated by LFB staining using a scoring system from 0 to 4: 0 represents for no demyelination; 1, a small range of demyelination; 2, 2-3 small range of demyelination; 3, 1-2 large range of demyelination; 4, large-scale demyelination involves more than 20% of white matter areas.

[3] = system: MOG35-55 induced experimental autoimmune encephalomyelitis (EAE) model in C57BL/6 mice; test: Histopathologic assessment of spinal cord, H&E staining (inflammation) in EAE model; type: in vivo; conditions: for H&E staining score: day 21, spinal cord, scoring 0 to 4
Experimental: as §1, §2, §3
The inflammation of spinal cord was evaluated by H&E staining using a scoring system from 0 to 4: 0, no inflammatory cell infiltration; 1, inflammatory cell infiltration is limited to perivascular and […]; 2, small amount of inflammatory cell infiltration in the spinal cord; 3, medium number of inflammatory cell infiltration in the spinal cord; 4, large number of inflammatory cell infiltration in the spinal cord.

[4] = system: peripheral blood mononuclear cell (PBMC); test: Flow cytometry of PBMC lymphocyte subtypes in EAE model; type: in vivo, C57BL/6 mice; conditions: 100 mg/kg; day 21
[5] = clinical application; cited from earlier work
[6] = 100 mg/kg po qd, 7 days (d14-d20)
[7] = 100 mg/kg po qd, 14 days (d7-d20)
[8] = 100 mg/kg po qd, 20 days (d1-d20)

| Compound | clinical score ([1]; 100 mg/kg po qd, 14 days (d7-d20, Group 3), end of the study (day 21), scoring 0 to 5) | clinical score of EAE (result in words) ([1]; 100 mg/kg po qd, either of the three regimens (20, 14, 7 days)) | LFB staining score [2, 6] | LFB staining score [2, 7] | LFB staining score [2, 8] | LFB staining scores (result in words) ([2]; FIG. 2 legend, regimen not stated) | H&E staining score [3, 6] | H&E staining score [3, 7] | H&E staining score [3, 8] | H&E staining scores (result in words) ([3]; FIG. 3 legend, regimen not stated) | number of B lymphocytes (CD45+CD3-B220+) in the PBMC [4] | number of CD4+ T lymphocytes (CD45+CD3+CD4+) in the PBMC [4] | number of CD8+ T lymphocytes (CD45+CD3+CD8+) in the PBMC [4] | number of T lymphocytes (CD45+CD3+) in the PBMC [4] | number of double negative T lymphocytes (CD45+CD3+CD4-CD8−) in the PBMC [4] | number of leukocytes (CD45+) in the PBMC [4] | symptoms of multiple sclerosis (clinical score, result in words) ([1]; 1 mpk po qd x 20 d (d1-d20), Group 5, entire experiment) | LFB staining score ([2]; 1 mpk po qd x 20 d (d1-d20)) | H&E staining score ([3]; 1 mpk po qd x 20 d (d1-d20)) | cardiovascular toxicity [5] |
| --- | --- | --- | --- | --- | --- | --- | --- | --- | --- | --- | --- | --- | --- | --- | --- | --- | --- | --- | --- | --- |
| O=C(NS(=O)(=O)c1ccc(NC[C@H]2COCCO2)c([N+](=O)[O-])c1)c1ccc(N2CCN(CC3=C(c4ccc(Cl)cc4)CC4(CCC4)CC3)CC2)cc1Oc1cnc2[nH]ccc2c1 [Compound 4, (S)-N-((4-(((1,4-dioxan-2-yl)methyl)amino)-3-nitrophenyl)sulfonyl)-2-((1H-pyrrolo[2,3-b]pyridin-5-yl)oxy)-4-(4-((6-(4-chlorophenyl)spiro[3.5]non-6-en-7-yl)methyl)piperazin-1-yl)benzamide] | 2.00±0.58 | significantly reducing the clinical score of EAE; also recorded: reduced the clinical scores | 1.30±0.37 | 1.33±0.44 | 1.80±0.29 | reduced the LFB staining scores | 2.10±0.41 | 1.11±0.33 | 2.00±0.39 | reduced the H&E staining scores | significantly reduced | significantly reduced | significantly reduced | significantly reduced | significantly reduced | significantly reduced |  |  |  |  |
| CCCCCCCCc1ccc(CCC(N)(CO)CO)cc1.Cl [FTY720, reference compound] |  |  |  |  |  |  |  |  |  |  |  |  |  |  |  |  | no mice developing symptoms of multiple sclerosis | 0 | 0 | obvious cardiovascular toxicity |
